Key:
Format in all cases: in vivo
[1] = system: redroot pigweed (Amaranthus retroflexus, AMR); experiment: Pre-emerge test, redroot pigweed; conditions: 250 g ai/ha, 14 days after application, rating scale 0-100 (0 no damage, 100 complete death)
In short: (§1)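 Scores at 14 days after treatment use a 0–100 scale, where 0 is no damage and 100 is death of all plants. Treatments were acetone solutions sprayed at 8–1000 g ai/ha onto soil sown one day prior.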

[2] = system: velvetleaf (Abutilon theophrasti, ABT); experiment: Pre-emerge test, velvetleaf; conditions: 250 g ai/ha, 14 days after application, rating scale 0-100 (0 no damage, 100 complete death)
In short: as §1

[3] = system: sicklepod (Cassia obtusifolia, CAO); experiment: Pre-emerge test, sicklepod; conditions: 250 g ai/ha, 14 days after application, rating scale 0-100 (0 no damage, 100 complete death)
In short: as §1

[4] = system: ivyleaf morningglory (Ipomoea hederacea, IPH); experiment: Pre-emerge test, ivyleaf morningglory; conditions: 250 g ai/ha, 14 days after application, rating scale 0-100 (0 no damage, 100 complete death)
In short: as §1

[5] = system: lambsquarters (Chenopodium album, CHA); experiment: Pre-emerge test, lambsquarters; conditions: 250 g ai/ha, 14 days after application, rating scale 0-100 (0 no damage, 100 complete death)
In short: as §1

[6] = system: common ragweed (Ambrosia artemisiifolia L., AML); experiment: Pre-emerge test, common ragweed; conditions: 250 g ai/ha, 14 days after application, rating scale 0-100 (0 no damage, 100 complete death)
In short: as §1

[7] = system: cocklebur (Xanthium strumariunt, XAS); experiment: Pre-emerge test, cocklebur; conditions: 250 g ai/ha, 14 days after application, rating scale 0-100 (0 no damage, 100 complete death)
In short: as §1

[8] = system: green foxtail (Setaria viridis, SEV); experiment: Pre-emerge test, green foxtail; conditions: 250 g ai/ha, 14 days after application, rating scale 0-100 (0 no damage, 100 complete death)
In short: as §1

[9] = system: barnyardgrass (Echinachloa crus-galli, ECC); experiment: Pre-emerge test, barnyardgrass; conditions: 250 g ai/ha, 14 days after application, rating scale 0-100 (0 no damage, 100 complete death)
In short: as §1

[10] = system: johnsongrass (Sorghum halepense, SOH); experiment: Pre-emerge test, johnsongrass; conditions: 250 g ai/ha, 14 days after application, rating scale 0-100 (0 no damage, 100 complete death)
In short: as §1

[11] = system: large crabgrass (Digitaria sanguinalis, DIS); experiment: Pre-emerge test, large crabgrass; conditions: 250 g ai/ha, 14 days after application, rating scale 0-100 (0 no damage, 100 complete death)
In short: as §1

[12] = system: field corn (Zea mays L., var. Dekalb 535, CORN); experiment: Pre-emerge test, crop damage field corn; conditions: pre-emerge, 250 g ai/ha, 14 days after application, rating scale 0-100 (0 no damage, 100 complete death)
In short: as §1

[13] = system: soybean (Glycine max L., var. Pella 86, SOY); experiment: Pre-emerge test, crop damage soybean; conditions: pre-emerge, 250 g ai/ha, 14 days after application, rating scale 0-100 (0 no damage, 100 complete death)
In short: as §1

[14] = system: upland rice (Oryza sp., var.Tebonnet, RICE); experiment: Pre-emerge test, crop damage upland rice; conditions: pre-emerge, 250 g ai/ha, 14 days after application, rating scale 0-100 (0 no damage, 100 complete death)
In short: as §1

[15] = system: wheat (Triticum aestivum); experiment: Pre-emerge test, crop damage wheat; conditions: pre-emerge, 250 g ai/ha, 14 days after application, rating scale 0-100 (0 no damage, 100 complete death)
In short: as §1

[16] = system: redroot pigweed (Amaranthus retroflexus, AMR); experiment: Post-emerge test, redroot pigweed; conditions: 250 g ai/ha, 14 days after application, rating scale 0-100 (0 no damage, 100 complete death)
In short: (§2)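 Post-emergence spray, 8-1000 g ai/ha in acetone at 187 l/ha with 0.25% v/v non-ionic surfactant, applied to 2-3 leaf plants. Pots of sandy loam mix, greenhouse. Visual 0-100 injury rating at 14 DAT.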

[17] = system: velvetleaf (Abutilon theophrasti, ABT); experiment: Post-emerge test, velvetleaf; conditions: 250 g ai/ha, 14 days after application, rating scale 0-100 (0 no damage, 100 complete death)
In short: as §2

[18] = system: sicklepod (Cassia obtusifolia, CAO); experiment: Post-emerge test, sicklepod; conditions: 250 g ai/ha, 14 days after application, rating scale 0-100 (0 no damage, 100 complete death)
In short: as §2

[19] = system: ivyleaf morningglory (Ipomoea hederacea, IPH); experiment: Post-emerge test, ivyleaf morningglory; conditions: 250 g ai/ha, 14 days after application, rating scale 0-100 (0 no damage, 100 complete death)
In short: as §2

[20] = system: lambsquarters (Chenopodium album, CHA); experiment: Post-emerge test, lambsquarters; conditions: 250 g ai/ha, 14 days after application, rating scale 0-100 (0 no damage, 100 complete death)
In short: as §2

[21] = system: common ragweed (Ambrosia artemisiifolia L., AML); experiment: Post-emerge test, common ragweed; conditions: 250 g ai/ha, 14 days after application, rating scale 0-100 (0 no damage, 100 complete death)
In short: as §2

[22] = system: cocklebur (Xanthium strumariunt, XAS); experiment: Post-emerge test, cocklebur; conditions: 250 g ai/ha, 14 days after application, rating scale 0-100 (0 no damage, 100 complete death)
In short: as §2

[23] = system: green foxtail (Setaria viridis, SEV); experiment: Post-emerge test, green foxtail; conditions: 250 g ai/ha, 14 days after application, rating scale 0-100 (0 no damage, 100 complete death)
In short: as §2

[24] = system: barnyardgrass (Echinachloa crus-galli, ECC); experiment: Post-emerge test, barnyardgrass; conditions: 250 g ai/ha, 14 days after application, rating scale 0-100 (0 no damage, 100 complete death)
In short: as §2

[25] = system: johnsongrass (Sorghum halepense, SOH); experiment: Post-emerge test, johnsongrass; conditions: 250 g ai/ha, 14 days after application, rating scale 0-100 (0 no damage, 100 complete death)
In short: as §2

[26] = system: large crabgrass (Digitaria sanguinalis, DIS); experiment: Post-emerge test, large crabgrass; conditions: 250 g ai/ha, 14 days after application, rating scale 0-100 (0 no damage, 100 complete death)
In short: as §2

[27] = system: field corn (Zea mays L., var. Dekalb 535, CORN); experiment: Post-emerge test, crop damage field corn; conditions: post-emerge, 250 g ai/ha, 14 days after application, rating scale 0-100 (0 no damage, 100 complete death)
In short: as §2

[28] = system: soybean (Glycine max L., var. Pella 86, SOY); experiment: Post-emerge test, crop damage soybean; conditions: post-emerge, 250 g ai/ha, 14 days after application, rating scale 0-100 (0 no damage, 100 complete death)
In short: as §2

[29] = system: upland rice (Oryza sp., var.Tebonnet, RICE); experiment: Post-emerge test, crop damage upland rice; conditions: post-emerge, 250 g ai/ha, 14 days after application, rating scale 0-100 (0 no damage, 100 complete death)
In short: as §2

[30] = system: wheat (Triticum aestivum); experiment: Post-emerge test, crop damage wheat; conditions: post-emerge, 250 g ai/ha, 14 days after application, rating scale 0-100 (0 no damage, 100 complete death)
In short: as §2

| Compound | Pre-emerge Herbicidal Activity AMR (phytotoxicity rating) [1] | Pre-emerge Herbicidal Activity ABT (phytotoxicity rating) [2] | Pre-emerge Herbicidal Activity CAO (phytotoxicity rating) [3] | Pre-emerge Herbicidal Activity IPH (phytotoxicity rating) [4] | Pre-emerge Herbicidal Activity CHA (phytotoxicity rating) [5] | Pre-emerge Herbicidal Activity AML (phytotoxicity rating) [6] | Pre-emerge Herbicidal Activity XAS (phytotoxicity rating) [7] | Pre-emerge Herbicidal Activity SEV (phytotoxicity rating) [8] | Pre-emerge Herbicidal Activity ECC (phytotoxicity rating) [9] | Pre-emerge Herbicidal Activity SOH (phytotoxicity rating) [10] | Pre-emerge Herbicidal Activity DIS (phytotoxicity rating) [11] | Pre-emerge crop damage CORN (phytotoxicity rating) [12] | Pre-emerge crop damage SOY (phytotoxicity rating) [13] | Pre-emerge crop damage RICE (phytotoxicity rating) [14] | Pre-emerge crop damage WHEAT (phytotoxicity rating) [15] | Post-emerge Herbicidal Activity AMR (phytotoxicity rating) [16] | Post-emerge Herbicidal Activity ABT (phytotoxicity rating) [17] | Post-emerge Herbicidal Activity CAO (phytotoxicity rating) [18] | Post-emerge Herbicidal Activity IPH (phytotoxicity rating) [19] | Post-emerge Herbicidal Activity CHA (phytotoxicity rating) [20] | also measured |
| --- | --- | --- | --- | --- | --- | --- | --- | --- | --- | --- | --- | --- | --- | --- | --- | --- | --- | --- | --- | --- | --- |
| CC(C)C1C(=O)Nc2c3c(cc(F)c2-n2c(=O)cc(C(F)(F)F)n(C)c2=O)OCC(=O)N31 (stereo not drawn) [1-77] | 100 | 100 | 90 | 100 | 100 | 100 | 98 | 100 | 100 | 99 | 100 | 100 | 100 | 99 | 99 | 25 | 50 | 0 | 75 | 90 | Post-emerge Herbicidal Activity AML (phytotoxicity rating) [21]: 0; Post-emerge Herbicidal Activity XAS (phytotoxicity rating) [22]: 50; Post-emerge Herbicidal Activity SEV (phytotoxicity rating) [23]: 0; Post-emerge Herbicidal Activity ECC (phytotoxicity rating) [24]: 0; Post-emerge Herbicidal Activity SOH (phytotoxicity rating) [25]: 0; Post-emerge Herbicidal Activity DIS (phytotoxicity rating) [26]: 0; Post-emerge crop damage CORN (phytotoxicity rating) [27]: 0; Post-emerge crop damage SOY (phytotoxicity rating) [28]: 10; Post-emerge crop damage RICE (phytotoxicity rating) [29]: 35; Post-emerge crop damage WHEAT (phytotoxicity rating) [30]: 0 |
| O=C1CN2C(=O)COc3cc(F)c(N4C(=O)C5=C(CCCC5)C4=O)c(c32)N1 [1-37, 9-Flouro-8-(4,5,6,7-tetrahydro-2H-isoindole-1,3-dione-2-yl)-5H-pyrazino[1,2,3de]-1,4-benzoxazine-3,6(2H, 7H)-dione] | 100 | 60 | 40 | 85 | 100 | 98 | 35 | 0 | 15 | 25 | 40 | 15 | 10 | 20 | 20 | 100 | 100 | 15 | 100 | 85 | Post-emerge Herbicidal Activity AML (phytotoxicity rating) [21]: 70; Post-emerge Herbicidal Activity XAS (phytotoxicity rating) [22]: 95; Post-emerge Herbicidal Activity SEV (phytotoxicity rating) [23]: 75; Post-emerge Herbicidal Activity ECC (phytotoxicity rating) [24]: 60; Post-emerge Herbicidal Activity SOH (phytotoxicity rating) [25]: 50; Post-emerge Herbicidal Activity DIS (phytotoxicity rating) [26]: 0; Post-emerge crop damage CORN (phytotoxicity rating) [27]: 35; Post-emerge crop damage SOY (phytotoxicity rating) [28]: 55; Post-emerge crop damage RICE (phytotoxicity rating) [29]: 80; Post-emerge crop damage WHEAT (phytotoxicity rating) [30]: 10 |
| CC1Oc2cc(F)c(-c3nn(C)c(OC(F)F)c3Cl)c3c2N(C1=O)C(C)C(=O)N3 (mixture of isomers) [1-57] | 100 | 100 | 100 | 100 | 100 | 100 | 95 | 100 | 100 | 100 | 100 | 50 | 50 | 65 | 35 | 100 | 100 | 100 | 100 | 100 | Post-emerge Herbicidal Activity AML (phytotoxicity rating) [21]: 80; Post-emerge Herbicidal Activity XAS (phytotoxicity rating) [22]: 100; Post-emerge Herbicidal Activity SEV (phytotoxicity rating) [23]: 99; Post-emerge Herbicidal Activity ECC (phytotoxicity rating) [24]: 80; Post-emerge Herbicidal Activity SOH (phytotoxicity rating) [25]: 40; Post-emerge Herbicidal Activity DIS (phytotoxicity rating) [26]: 10; Post-emerge crop damage CORN (phytotoxicity rating) [27]: 10; Post-emerge crop damage SOY (phytotoxicity rating) [28]: 100; Post-emerge crop damage RICE (phytotoxicity rating) [29]: 65; Post-emerge crop damage WHEAT (phytotoxicity rating) [30]: 50 |
